The source of these data is ChEMBL document CHEMBL1667790, “Synthesis and antioxidant activity of long chain alkyl hydroxycinnamates” (Eur J Med Chem, 2011).

Test [1] concerns Radical scavenging activity. As to the kind of experiment: Antioxidant activity assessed as residual DPPH radical scavenging activity after 45 mins by spectrophotometrically. It counts as functional.
Test [2] is described as follows: Antioxidant activity assessed as trolox equivalents of ABTS radical scavenging activity by TEAC assay. It counts as functional.

Broadly, the IC50 is the point on the concentration scale where inhibition reaches its midpoint.

For `CCCCCCCCCCCCCCCCCCOC(=O)/C=C/c1cc(OC)c(O)c(OC)c1`, the IC50 in test [1] turned out to be 77.1 µM. Moreover, the Activity in test [2] is 1.16 mmol. `CCCCCCCCCCCCCCCCOC(=O)/C=C/c1ccc(O)c(O)c1`: the IC50 in test [1] is 33 µM. Moreover, the Activity in test [2] came out at 0.96 mmol.

With `CCCCCCCCCCCCCCCCCCOC(=O)/C=C/c1ccc(O)c(O)c1`, the half-maximal inhibitory concentration (IC50) in test [1] was determined as 38 µM. Besides, the Activity in test [2] was 1.02 mmol. The like results for `CCCCCCCCCCCCCCOC(=O)/C=C/c1ccc(O)c(OC)c1` were, in that order, 110 µM and 1.66 mmol.

As to `CCCCCCCCCCCCCCOC(=O)/C=C/c1ccc(O)cc1`, the IC50 in test [1] is greater than 100 µM. With `O=C(O)/C=C/c1ccc(O)c(O)c1` [CAFFEIC ACID], in test [1], the half-inhibitory concentration (IC50) worked out at 34.1 µM. Besides, the Activity in test [2] is 0.95 mmol. As for `CCCCCCCCCCCCCCOC(=O)/C=C/c1ccc(O)c(O)c1`, the IC50 in test [1] came to 31.9 µM. In addition, the Activity in test [2] is 0.98 mmol. In the case of `O=C(O)/C=C/c1ccc(O)cc1` [COUMARIC ACID], the IC50 in test [1] was greater than 100 µM.

`CCCCCCCCCCCCCCOC(=O)/C=C/c1cc(OC)c(O)c(OC)c1`: the IC50 in test [1] was 77.2 µM. Moreover, in test [2], the Activity came out at 1.18 mmol. Regarding `COc1cc(/C=C/C(=O)O)ccc1O` [FERULATE], the concentration for half-maximal inhibition (IC50) in test [1] was determined as 112 µM. The Activity in test [2] amounted to 1.76 mmol. For `CCCCCCCCCCCCCCCCCCOC(=O)/C=C/c1ccc(O)c(OC)c1`, the IC50 in test [1] came out at 117 µM. Further, the Activity in test [2] turned out to be 1.8 mmol. For the compound `COc1cc(/C=C/C(=O)O)cc(OC)c1O` [SINAPINATE], the IC50 in test [1] turned out to be 66 µM. Also, the Activity in test [2] was 1.14 mmol.
